# Experimental data from patent publication US20070092444A1, “Inhibition of inward sodium currents in cancer” (priority 2003, published 2007).
# “Also recorded” adds a separate entry of the source.
# Assays:
# [1] = system: constitutive amiloride-sensitive inward Na^+ current in high-grade glioma (GBM) cells; assay: Whole-cell patch clamp, freshly resected and primary cultured high-grade glioma (Grade III/IV, GBM) cells; type: cell-based, human
# Source text: (§1) FIGS. 2A-C show representative whole-cell patch clamp recordings.
# (§2) FIGS. 4A and B show summary I-V curves of freshly resected normal astrocytes (FIG. 4A) and GBM cells (FIG. 4B). Inward currents (−60 mV) were −7.5±1.2 pA (normal) and −43.8±14.5 pA (GBM). Outward currents (+40 mV) averaged 42.2±2.4 pA and 47.2±12.5 pA for normal and GBMs, respectively. FIGS. 4C and D show summary amiloride-sensitive (difference) currents of freshly resected normal astrocytes (FIG. 4C) and GBM cells (FIG. 4D).
# (§3) A constitutive amiloride-sensitive inward Na^+ conductance has been reported in human high-grade glioma cells. […] These inward Na^+ currents were not present in normal astrocytes or in low-grade astrocytomas (e.g., pilocytic astrocytomas). However, the composition of the channels responsible for the inward Na^+ conductance has not been reported. FIGS. 2A-C show representative whole cell patch-clamp measurements on tissue derived from a freshly resected human glioblastoma multiforme (GBM; WHO grade IV), normal astrocytes obtained from patients undergoing surgery for intractable epilepsy, and primary cultures of different grade glial tumors. […] However, there was no significant inward Na^+ current in normal astrocytes and Grades I and II astrocytoma cells (FIG. 2C).
# Summary current-voltage (I-V) curves are presented for normal astrocytes and GBM cells in FIG. 4A and FIG. 4B, respectively, while difference I-V curves for normal astrocytes and GBM cells are presented in FIG. 4C and FIG. 4D, respectively. The GBM cells are depolarized by an average of 31 mV compared to the normal astrocytes under these recording conditions. The depolarized zero current membrane potential is due to the presence of an enhanced Na^+ conductance as is shown in the difference I-V curves.
# (§4) FIG. 19A show representative whole-cell patch clamp recordings of ZR-75-1 and SKMEL-2 cells in the basal state.
# [2] = system: whole-cell currents of normal human astrocytes; assay: Whole-cell patch clamp, normal human astrocytes; type: cell-based
# Source text: as §1, §2
# as §3, with “2C). […]” for “2C).”
# [3] = system: inward Na^+ currents in SK-MG cells; assay: Whole-cell patch clamp, SK-MG glioma cells; type: cell-based, human
# Method: (§5) FIGS. 7A-7C show representative whole-cell patch clamp recordings.
# (§6) The amiloride-sensitive inward Na^+ currents are measured regardless of whether ASIC2 is absent or present (FIGS. 7A-D). Whole-cell patch clamp recordings were obtained from U87-MG, SK-MG, and D54-MG glioma cells in the basal state. […] This inhibition of the inward current occurred regardless of the absence or presence of ASIC2 mRNA (FIG. 7D) (as detected by RT-PCR as described above).
# as §4
# [4] = system: inward Na^+ currents in U87-MG cells; assay: Whole-cell patch clamp, U87-MG glioma cells; type: cell-based, human
# Method: as §5, §6, §4
# [5] = system: constitutive inward Na^+ current of ZR-75-1 breast carcinoma cells; assay: Whole-cell patch clamp, ZR-75-1 breast carcinoma cells; type: cell-based
# Source text: (§7) FIGS. 5A-5C show representative whole-cell patch clamp recordings.
# (§8) FIGS. 19A-19C show representative whole-cell patch clamp recordings.
# (§9) A constitutive amiloride-sensitive inward Na^+ conductance was also observed in the breast carcinoma cell line ZR-75-1 and the melanoma cell line SKMEL-2. FIGS. 5A-C show representative whole cell patch-clamp measurements on ZR-75-1 cells and SKMEL-2 cells.
# as §4
# [6] = system: constitutive inward Na^+ current of SKMEL-2 melanoma cells; assay: Whole-cell patch clamp, SKMEL-2 melanoma cells; type: cell-based
# Source text: as §7, §8, §9, §4
# U87-MG cells = assay: Transwell Migration Assay, U87-MG cells; type: cell-based, human; conditions: 3 h, vitronectin
# primary GBM cultures = assay: Transwell Migration Assay, primary GBM cultures; type: cell-based, human; conditions: 3 h, vitronectin
# Method: Approximately 10,000 cells were added to the upper side of a filter insert perforated with 5-8 μm holes, and induced to migrate through these pores toward the extracellular matrix protein vitronectin (coated on the underside of the filter). PcTX1 or control scrambled PcTX1 peptide was added to each compartment at the same time as the cells. BSA-coated filter inserts were used as negative controls. After 3 h, cells were fixed with 4% paraformaldehyde, and subsequently stained with crystal violet. Cells were counted on an inverted microscope, averaging five fields per Transwell chamber. Four-to-ten chambers were used under each condition.
# ASIC2 = molecular target: T1, ASIC2 (Homo sapiens, UniProt Q16515); assay: Acid-activated currents in voltage-clamped Xenopus oocytes expressing ASIC2; type: cell-based; set-up: expressed in transfected cells; host or cells: Xenopus oocytes (cRNA injection); conditions: pHo 4.0, −60 mV
# T1 sequence (Q16515 1-512): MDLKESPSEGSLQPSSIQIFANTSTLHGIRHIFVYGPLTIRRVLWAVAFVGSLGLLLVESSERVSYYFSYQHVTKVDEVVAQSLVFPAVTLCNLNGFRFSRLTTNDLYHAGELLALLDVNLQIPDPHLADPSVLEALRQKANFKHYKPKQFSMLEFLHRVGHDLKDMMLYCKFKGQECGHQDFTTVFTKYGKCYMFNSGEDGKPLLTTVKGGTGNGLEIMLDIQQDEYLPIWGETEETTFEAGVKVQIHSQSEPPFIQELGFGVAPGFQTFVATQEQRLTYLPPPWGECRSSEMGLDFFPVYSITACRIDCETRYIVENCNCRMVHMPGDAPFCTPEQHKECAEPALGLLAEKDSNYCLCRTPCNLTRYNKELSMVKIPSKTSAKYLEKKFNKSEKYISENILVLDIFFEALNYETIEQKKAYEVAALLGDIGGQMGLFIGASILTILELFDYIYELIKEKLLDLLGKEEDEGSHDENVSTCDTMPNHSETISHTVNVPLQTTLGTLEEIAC
# Source text: FIGS. 8A-C show acid-activated ASIC currents in Xenopus oocytes. ASIC 2 (FIG. 8A), ASIC1 (FIG. 8B) and the combination of ASIC2 and ASIC1 (FIG. 8C) were examined. […] Each oocyte served as its own control.
# (§10) Membrane potential was held at −60 mV, and the pHo was step decreased to 4.0 for 10 s, and then returned to 7.4 for 30 s before repeating the sequence.
# Xenopus oocytes were used to express ASIC1 and ASIC2 mRNA individually and in combination. Oocyte preparation, cRNA injection, and two-electrode voltage clamp recordings were performed as described (33,67-69).
# as §10
# [7] = system: inward currents in D54-MG glioma cells; assay: Whole-cell patch clamp, D54-MG glioma cells; type: cell-based, human; conditions: 100 μM amiloride
# Method: as §5, §6
compound,measurement,setting,value
Psalmotoxin 1 [PcTX1],block of constitutive inward Na^+ current,"[1]; 10 nM peptide, freshly resected GBM",blocked
same,block of inward basally activated currents,[1]; primary cultured GBM,similarly blocked
same,effect on whole-cell currents,"[2]; PcTX1 (10 nM, FIG. 18B), normal human astrocytes",without effect
same,block of constitutive inward Na^+ current,[3]; 10 nM peptide,blocked
same,block of inward basally activated currents,[4],similarly blocked
same,block of constitutive inward Na^+ current,[5]; 10 nM synthetic PcTX1,blocked
same,block of constitutive inward Na^+ current,[6]; 10 nM synthetic PcTX1,blocked
same,diminished ability to migrate through the filter,U87-MG cells,> 90%
same,diminished ability to migrate through the filter,primary GBM cultures,> 90%
same,block of acid-induced inward currents,ASIC2; 1 nM peptide (FIG. 20),not those inward Na^+ currents mediated by ASIC2; also recorded: not the inward currents mediated by ASIC2
N=C(N)NC(=O)c1nc(Cl)c(N)nc1N [amiloride],inhibition of inward Na^+ currents,"[1]; 100 μM amiloride, Grade III and IV tumor cells, GBM",completely inhibited; also recorded: blocked; also recorded: significantly inhibited
same,effect on currents,"[2]; 100 μM amiloride, normal astrocytes",did not affect
same,inhibition of inward Na^+ currents,[3]; 100 μM amiloride,inhibited; also recorded: likewise blocked
same,inhibition of inward Na^+ currents,[4]; 100 μM amiloride,inhibited; also recorded: likewise blocked
same,inhibition of inward currents,[7],inhibited
same,inhibition of inward currents,[5]; 100 μM amiloride,completely inhibited
same,inhibition of inward currents,[6]; 100 μM amiloride,completely inhibited
same,inhibition of acid-activated currents,ASIC2; 400 μM amiloride,inhibited
